In US10910084B2, “Method for modelling, optimizing, parameterizing, testing and validating a dynamic network with network perturbations” (Albert-Ludwigs-Universität Freiburg, priority 2011, dated 2021):

Tests used:
Assay type in all cases: cell-based
[1] = test system: mTOR-pS2481 (mTORC2 readout) in HeLa cells; test: mTOR-pS2481 immunoblot of whole cell lysates, HeLa cells starved and induced with aa/insulin
Protocol: (§1) Experiments were performed in particular in HeLa α Kyoto cells and C2C12 myoblasts. For inducible knock down of Raptor or TSC2, cells were transduced with lentivirus encoding the tetracycline-sensitive tTR-KRAB repressor and a DsRed reporter. Cells were subsequently transfected with lentivirus encoding the specific shRNA, and a GFP reporter, (pLVTH vector), both preferably under the control of tTR-KRAB. For lentivirus-mediated knock down of Rictor a pLKO.1-based short hairpin construct specific for Rictor (Addgene plasmid 1853), as well as a scrambled control sequence (Addgene plasmid 1864) can in particular be supplied from Addgene. HeLa cells were transfected with viral supernatant twice as described previously and harvested 60 hours after transfection.
For calibration data sets, in particular HeLa cells can be starved for serum and amino acids by exchanging standard growth medium for Hank's Buffered Salt Solution (HBSS) (PAN Biotech GmbH, Aidenbach, Germany) over night to inhibit mTOR pathway activity. After 16 hours of starvation, mTOR signaling was restimulated with DMEM containing amino acids and supplemented with 100 nM insulin (Sigma Aldrich, St. Louis, Mo., USA).
Gradual knockdowns of Raptor or TSC2 can preferably be established by induction with 5 μg/ml doxycycline (Calbiochem, Merck, Darmstadt, Germany) for 0, 1, 2, or 3 days. Cells can be starved for 16 hours in HBSS and mTOR signaling was induced with DMEM (PAA, Pasching, Austria) supplemented with 100 nM insulin. […] Wortmannin or LY294002 can in particular be added 30 min prior to and during the stimulation with DMEM supplemented 100 nM insulin. Cells can for example be washed once with PBS and lysed with TNE lysis buffer [50 mM Tris HCL pH8.0, 150 mM NaCl, 1% v/v TritonX-100 (Calbiochem, Merck, Darmstadt, Germany), Complete (Roche, Mannheim, Germany), Phosphatase Inhibitor Cocktail 2, Phosphatase Inhibitor Cocktail 3 (both Sigma Aldrich, St. Louis, Mo., USA)]. Protein concentrations can preferably be measured (Protein Assay Dye Reagent Concentrate, Bio-Rad, Hercules, Calif., USA) according to manufacturer's protocol. Concentrations can for example be adjusted with lysis buffer. […] Whole cell lysates can for example be analyzed using SDS-PAGE gels. […]
(§2) HRP can for example be detected with the ECL Western Blotting Substrate or the SuperSignal West Femto reagent [Pierce Biotechnology (Thermo Scientific, Rockford, Ill. USA)], and the emitted light can in particular be detected and quantified with a chemiluminescence imaging analyzer (LAS4000mini; Fujifilm, Tokyo, Japan). Obtained images can preferably be analyzed with Multi-Gauge version 3.0 software (Fujifilm, Tokyo, Japan). […]

[2] = test system: Akt-pS473 in HeLa cells; test: Akt-pS473 immunoblot of whole cell lysates, HeLa cells; settings: HeLa cells starved, induced by aa/insulin for 30 and 50 min
Protocol: as §1, with “HeLa cells were transfected with viral supernatant twice as described previously and harvested 60 hours after transfection.” left out
(§3) Gradual knockdowns of Raptor or TSC2 can preferably be established by induction with 5 μg/ml doxycycline (Calbiochem, Merck, Darmstadt, Germany) for 0, 1, 2, or 3 days. […] Protein concentrations can preferably be measured (Protein Assay Dye Reagent Concentrate, Bio-Rad, Hercules, Calif., USA) according to manufacturer's protocol. […] Whole cell lysates can for example be analyzed using SDS-PAGE gels. […]
as §2, with “Japan).” for “Japan). Obtained images can preferably be analyzed with Multi-Gauge version 3.0 software (Fujifilm, Tokyo, Japan).”

[3] = test system: p70-S6K-pT389 (mTORC1 readout) in HeLa cells; test: p70-S6K-pT389 immunoblot of whole cell lysates, HeLa cells; settings: quantitation of 3 experiments; 200 nM PP242; Rapamycin; * P<0.05
Protocol: as §1, with “HeLa cells were transfected with viral supernatant twice as described previously and harvested 60 hours after transfection.” left out
as §3
as §2, with “Japan).” for “Japan). Obtained images can preferably be analyzed with Multi-Gauge version 3.0 software (Fujifilm, Tokyo, Japan).”

[4] = test system: mTOR-pS2481 associated with the immunoprecipitated mTORC2; test: mTOR-pS2481 in mTORC2 immunoprecipitated with Sin1 antibody, HeLa cells; settings: Sin1 immunoprecipitation
Protocol: Immunoprecipitations can in particular be performed as described elsewhere. […] Immunoprecipitations were performed with 5 μg/ml antibody [antibody recognizing Sin1, Raptor, or rabbit IgG (all Bethyl)] and with magnetic Dynabeads Protein G (Invitrogen). Gradual knockdowns of Raptor or TSC2 can preferably be established by induction with 5 μg/ml doxycycline (Calbiochem, Merck, Darmstadt, Germany) for 0, 1, 2, or 3 days. Cells can be starved for 16 hours in HBSS and mTOR signaling was induced with DMEM (PAA, Pasching, Austria) supplemented with 100 nM insulin. […] Wortmannin or LY294002 can in particular be added 30 min prior to and during the stimulation with DMEM supplemented 100 nM insulin. […] Protein concentrations can preferably be measured (Protein Assay Dye Reagent Concentrate, Bio-Rad, Hercules, Calif., USA) according to manufacturer's protocol. […] Whole cell lysates can for example be analyzed using SDS-PAGE gels. […] HRP can for example be detected with the ECL Western Blotting Substrate or the SuperSignal West Femto reagent [Pierce Biotechnology (Thermo Scientific, Rockford, Ill. USA)], and the emitted light can in particular be detected and quantified with a chemiluminescence imaging analyzer (LAS4000mini; Fujifilm, Tokyo, Japan). Obtained images can preferably be analyzed with Multi-Gauge version 3.0 software (Fujifilm, Tokyo, Japan). […]

[5] = test system: mTOR-pS2481 in C2C12 cells; test: mTOR-pS2481 immunoblot in C2C12 myoblasts; settings: continuous presence of aa/insulin
Protocol: as §1, with “HeLa cells were transfected with viral supernatant twice as described previously and harvested 60 hours after transfection.” left out
as §3
as §2, with “Japan).” for “Japan). Obtained images can preferably be analyzed with Multi-Gauge version 3.0 software (Fujifilm, Tokyo, Japan).”

With `COC[C@H]1OC(=O)c2coc3c2[C@@]1(C)C1=C(C3=O)[C@@H]2CCC(=O)[C@@]2(C)C[C@H]1OC(C)=O` [Wortmannin] the “Wortmannin concentrations at which mTORpS2481 was inhibited” value ([1]; HeLa cells starved, induced by aa/insulin for 30 and 50 min) was no less than 20 nM, the “Wortmannin concentration at which Akt-pS473 was already inhibited” value [2] was 5 nM and the “Wortmannin concentrations at which Akt-pS473 was strongly inhibited” value [2] was no less than 10 nM.
For `O=c1cc(N2CCOCC2)oc2c(-c3ccccc3)cccc12` [LY294002], the “LY294002 concentrations at which mTORpS2481 was reduced” value ([1]; HeLa cells (FIG. 10C)) was no less than 1 µM.
With `CC(C)n1nc(-c2cc3cc(O)ccc3[nH]2)c2c(N)ncnc21` [PP242] the mTOR-pS2481 abundance ([1]; HeLa cells, short-term treatment) was “reduced the abundance of mTORpS2481 in a dose-dependent manner”, the “mTOR-pS2481 compared to DMSO-treated control, significance (FIG. 1E)” value ([1]; quantitation of 3 experiments, 200 nM PP242, 100 nM Rapamycin, * P<0.05) was “significant” and the “p70-S6K-pT389 compared to DMSO-treated control, significance (FIG. 1D)” value [3] was “significant”. The “mTOR-pS2481 associated with the immunoprecipitated mTORC2” value [4] was “significantly reduced” and the “amount of mTOR-pS2481” value [5] was “decreased”.
